The structures appear in SMILES notation.

Assay [1] relates to OPM-2 human multiple myeloma cell line. Nature of the assay: Cell Viability Assay (OPM-2 10 FBS). As to conditions: Homo sapiens, OPM-2, 16 h, OPM-2 cells, 16 h, CellTiter-Glo. In kind it is cell-based. The method in brief:
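IC50 from 4-parameter logistic fit of CellTiter-Glo luminescence. 3000 cells/well, 10% FBS medium, serial compound dilutions, 16 h, 37 °C/5% CO2; read 25 min post-reagent.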
In general terms: In ATP-based viability assays light output follows the ATP content of the culture.

Assay [2] concerns the target T1, Mcl-1/Bim interaction, recombinant human Mcl-1 (171-327) (Homo sapiens, UniProt Q07820).
T1 construct: made in house
Nature of the assay: Cell free Mcl-1: Bim Affinity Assay (Mcl-1 HTRF). In kind it is binding. As to conditions: TR-FRET, 0.1 nM Mcl-1 (171-327), 0.05 nM biotin-Bim (51-76). The method in brief: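 TR-FRET competition assay with biotinylated human Bim peptide (residues 51-76); reaction plates incubated overnight before reading. IC50 values came from duplicate data fitted to a four-parameter sigmoidal competition curve.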
(In TR-FRET formats the signal depends on donor and acceptor labels being close together.)

T1 sequence (Q07820 171-327): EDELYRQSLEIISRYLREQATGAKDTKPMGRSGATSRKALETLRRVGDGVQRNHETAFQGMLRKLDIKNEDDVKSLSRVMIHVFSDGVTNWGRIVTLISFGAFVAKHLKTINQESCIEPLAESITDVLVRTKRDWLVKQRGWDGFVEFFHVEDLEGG

Usually IC50 stands for the concentration that inhibits the measured activity by half. `CO[C@H]1C[C@@H](N2[C@@H](C)C/C=C\[C@H](O)[C@@H]3CC[C@H]3CN3C[C@@]4(CCCc5cc(Cl)ccc54)COc4ccc(cc43)C(=O)NS2(=O)=O)C1` [Example 78, (1S,3′R,6′R,7′S,8′Z,11′S)-6-chloro-7′-hydroxy-12′-(cis-3-methoxycyclobutyl)-11′-methyl-3,4-dihydro-2H,15′H-spiro[naphthalene-1,22′-[20]oxa[13]thia[1,12,14]triazatetracyclo[14.7.2.0^3,6.0^19,24]pentacosa[8,16,18,24]tetraen]-15′-one 13′,13′-dioxide]: the figures for the half-inhibitory concentration (IC50) in assay [1] and in assay [2] were 587 nM and 1.45 nM, respectively.
Taken in the same sequence, the figures for `COC1CC(N2[C@H](C)C/C=C/[C@H](O)[C@@H]3CC[C@H]3CN3C[C@@]4(CCCc5cc(Cl)ccc54)COc4ccc(cc43)C(=O)NS2(=O)=O)C1` (stereo partly drawn) [Example 79, (1S,3′R,6′R,7′S,8′E,11R)-6-chloro-7′-hydroxy-12′-(cis-3-methoxycyclobutyl)-11′-methyl-3,4-dihydro-2H,15′H-spiro[naphthalene-1,22′-[20]oxa[13]thia[1,12,14]triazatetracyclo[14.7.2.0^3,6.0^19,24]pentacosa[8,16,18,24]tetraen]-15′-one 13′,13′-dioxide] were 3620 nM and 4.18 nM.
Taken in the same sequence, the figures for `COCCO[C@H]1/C=C/C[C@H](C)N(Cc2ccc(OC)cc2)S(=O)(=O)NC(=O)c2ccc3c(c2)N(C[C@@H]2CC[C@H]21)C[C@@]1(CCCc2cc(Cl)ccc21)CO3` [Example 82, (1S,3′R,6′R,7′S,8′E,11′S)-6-chloro-12′-(4-methoxybenzyl)-7′-(2-methoxyethoxy)-11′-methyl-3,4-dihydro-2H,15′H-spiro[naphthalene-1,22′-[20]oxa[13]thia[1,12,14]triazatetracyclo[14.7.2.0^3,6.0^19,24]pentacosa[8,16,18,24]tetraen]-15′-one 13′,13′-dioxide] were 2920 nM and 7.8 nM.
For `C[C@H]1C/C=C/[C@H](O)[C@@H]2CC[C@H]2CN2C[C@@]3(CCCc4cc(Cl)ccc43)COc3ccc(cc32)C(=O)NS(=O)(=O)N1C` [Example 83, (1S,3′R,6′R,7′S,8′E,11′S)-6-chloro-7′-hydroxy-11′,12′-dimethyl-3,4-dihydro-2H,15′H-spiro[naphthalene-1,22′-[20]oxa[13]thia[1,12,14]triazatetracyclo[14.7.2.0^3,6.0^19,24]pentacosa[8,16,18,24]tetraen]-15′-one 13′,13′-dioxide], the concentration for half-maximal inhibition (IC50) in assay [1] turned out to be 487 nM; in assay [2], 0.419 nM.
Taken in the same sequence, the figures for `CCN1[C@H](C)CCC[C@H](O)[C@@H]2CC[C@H]2CN2C[C@@]3(CCCc4cc(Cl)ccc43)COc3ccc(cc32)C(=O)NS1(=O)=O` [Example 84, (1S,3′R,6′R,7′S,11R)-6-chloro-12′-ethyl-7′-hydroxy-11′-methyl-3,4-dihydro-2H,15′H-spiro[naphthalene-1,22′-[20]oxa[13]thia[1,12,14]triazatetracyclo[14.7.2.0^3,6.0^19,24]pentacosa[16,18,24]trien]-15′-one 13′,13′-dioxide] were 5900 nM and 13.2 nM.
As for `CCN1[C@@H](C)CCC[C@H](O)[C@@H]2CC[C@H]2CN2C[C@@]3(CCCc4cc(Cl)ccc43)COc3ccc(cc32)C(=O)NS1(=O)=O` [Example 85, (1S,3′R,6′R,7′S,11′S)-6-chloro-12′-ethyl-7′-hydroxy-11′-methyl-3,4-dihydro-2H,15′H-spiro[naphthalene-1,22′-[20]oxa[13]thia[1,12,14]triazatetracyclo[14.7.2.0^3,6.0^19,24]pentacosa[16,18,24]trien]-15′-one 13′,13′-dioxide], the results for the concentration for half-maximal inhibition (IC50) in assay [1] and in assay [2] were 1910 nM and 1.88 nM, respectively.
Taken in the same sequence, the figures for `C=CCN1CCCC[C@H](O)[C@@H]2CC[C@H]2CN2C[C@@]3(CCCc4cc(Cl)ccc43)COc3ccc(cc32)C(=O)NS1(=O)=O` [Example 87, (1S,3′R,6′R,7′S)-6-chloro-7′-hydroxy-12′-(2-propen-1-yl)-3,4-dihydro-2H,15′H-spiro[naphthalene-1,22′-[20]oxa[13]thia[1,12,14]triazatetracyclo[14.7.2.0^3,6.0^19,24]pentacosa[16,18,24]trien]-15′-one 13′,13′-dioxide] were 3540 nM and 3.31 nM.
Taken in the same sequence, the figures for `CCN1CC/C=C/[C@H](OCc2cscn2)[C@@H]2CC[C@H]2CN2C[C@@]3(CCCc4cc(Cl)ccc43)COc3ccc(cc32)C(=O)NS1(=O)=O` [Example 88, (1S,3′R,6′R,7′S,8′E)-6-chloro-12′-ethyl-7′-(1,3-thiazol-4-ylmethoxy)-3,4-dihydro-2H,15′H-spiro[naphthalene-1,22′-[20]oxa[13]thia[1,12,14]triazatetracyclo[14.7.2.0^3,6.0^19,24]pentacosa[8,16,18,24]tetraen]-15′-one 13′,13′-dioxide] were 1040 nM and 1.71 nM.
As for `CCN1CC/C=C/[C@H](OCC(=O)N2CCCC2)[C@@H]2CC[C@H]2CN2C[C@@]3(CCCc4cc(Cl)ccc43)COc3ccc(cc32)C(=O)NS1(=O)=O` [Example 89, (1S,3′R,6′R,7′S,8′E)-6-chloro-12′-ethyl-7′-(2-oxo-2-(1-pyrrolidinyl)ethoxy)-3,4-dihydro-2H,15′H-spiro[naphthalene-1,22′-[20]oxa[13]thia[1,12,14]triazatetracyclo[14.7.2.0^3,6.0^19,24]pentacosa[8,16,18,24]tetraen]-15′-one 13′,13′-dioxide], the IC50 was found to be 798 nM in assay [1] and 0.666 nM in assay [2].
For `COCCO[C@H]1/C=C/C[C@@H]2CC[C@H]2S(=O)(=O)NC(=O)c2ccc3c(c2)N(C[C@@H]2CC[C@H]21)C[C@@]1(CCCc2cc(Cl)ccc21)CO3` [Example 93, (1S,3′R,6′R,7′S,8′E,11′S,14′R)-6-chloro-7′-(2-methoxyethoxy)-3,4-dihydro-2H,17′H-spiro[naphthalene-1,24′-[22]oxa[15]thia[1,16]diazapentacyclo[16.7.2.0^3,6.0^11,14.0^21,26]heptacosa[8,18,20,26]tetraen]-17′-one 15′,15′-dioxide], the IC50 in assay [1] was 402 nM; in assay [2], 0.494 nM.
Taken in the same sequence, the figures for `Cn1cnc(CO[C@H]2/C=C/C[C@H]3CC[C@@H]3S(=O)(=O)NC(=O)c3ccc4c(c3)N(C[C@@H]3CC[C@H]32)C[C@@]2(CCCc3cc(Cl)ccc32)CO4)n1` [Example 94, (1S,3′R,6′R,7′S,8′E,11′R,14′S)-6-chloro-7′-((1-methyl-1H-1,2,4-triazol-3-yl)methoxy)-3,4-dihydro-2H,17′H-spiro[naphthalene-1,24′-[22]oxa[15]thia[1,16]diazapentacyclo[16.7.2.0^3,6.0^11,14.0^21,26]heptacosa[8,18,20,26]tetraen]-17′-one 15′,15′-dioxide] were 432 nM and 0.467 nM.
Taken in the same sequence, the figures for `CO[C@H]1/C=C/C[C@H]2CC[C@@H]2S(=O)(=O)NC(=O)c2ccc3c(c2)N(C[C@@H]2CC[C@H]21)C[C@@]1(CCCc2cc(Cl)ccc21)CO3` [Example 95, (1S,3′R,6′R,7′S,8′E,11′R,14′S)-6-chloro-7′-methoxy-3,4-dihydro-2H,17′H-spiro[naphthalene-1,24′-[22]oxa[15]thia[1,16]diazapentacyclo[16.7.2.0^3,6.0^11,14.0^21,26]heptacosa[8,18,20,26]tetraen]-17′-one 15′,15′-dioxide] were 572 nM and 0.46 nM.
With `O=C1NS(=O)(=O)[C@H]2C[C@@H](CC[C@H](O)[C@@H]3CC[C@H]3CN3C[C@@]4(CCCc5cc(Cl)ccc54)COc4ccc1cc43)C2` [Example 101, (1S,3′R,6′R,7′S,10′S,12′S)-6-chloro-7′-hydroxy-3,4-dihydro-2H,15′H-spiro[naphthalene-1,22′-[20]oxa[13]thia[1,14]diazapentacyclo[14.7.2.1^10,120^3,6.0^19,24]hexacosa[16,18,24]trien]-15′-one 13′,13′-dioxide], the figures for the IC50 in assay [1] and in assay [2] were 13000 nM and 2.58 nM, respectively.
As for `O=C1NS(=O)(=O)[C@H]2C[C@H](/C=C/[C@H](O)[C@@H]3CC[C@H]3CN3C[C@@]4(CCCc5cc(Cl)ccc54)COc4ccc1cc43)C2` [Example 102, (1S,3′R,6′R,7′S,8′E,10′R,12′S)-6-chloro-7′-hydroxy-3,4-dihydro-2H,15′H-spiro[naphthalene-1,22′-[20]oxa[13]thia[1,14]diazapentacyclo[14.7.2.1^10,12.0^3,6.0^19,24]hexacosa[8,16,18,24]tetraen]-15′-one 13′,13′-dioxide], the IC50 was determined as 18600 nM in assay [1] and 2.73 nM in assay [2].
Taken in the same sequence, the figures for `C[C@@H]1[C@@H](C)C[C@H](CCO)/C=C/[C@@H]2CC[C@H]2CN2C[C@@]3(CCCc4cc(Cl)ccc43)COc3ccc(cc32)C(=O)NS1(=O)=O` [Example 113, (1S,3′R,6′S,7′E,9′R,11′S,12′R)-6-chloro-9′-(2-hydroxyethyl)-11′,12′-dimethyl-3,4-dihydro-2H,15′H-spiro[naphthalene-1,22′-[20]oxa[13]thia[1,14]diazatetracyclo[14.7.2.0^3,6.0^19,24]pentacosa[7,16,18,24]tetraen]-15′-one 13′,13′-dioxide] were 1150 nM and 0.998 nM.
Taken in the same sequence, the figures for `COCC[C@@H]1/C=C/[C@@H]2CC[C@H]2CN2C[C@@]3(CCCc4cc(Cl)ccc43)COc3ccc(cc32)C(=O)NS(=O)(=O)[C@H](C)[C@@H](C)C1` [Example 114, (1S,3′R,6′S,7′E,9′R,11′S,12′R)-6-chloro-9′-(2-methoxyethyl)-11′,12′-dimethyl-3,4-dihydro-2H,15′H-spiro[naphthalene-1,22′-[20]oxa[13]thia[1,14]diazatetracyclo[14.7.2.0^3,6.0^19,24]pentacosa[7,16,18,24]tetraen]-15′-one 13′,13′-dioxide] were 3400 nM and 3.6 nM.

(Values after patent US12091425B2 (AMGEN INC., priority 2016, dated 2024).)
